Test results published in patent US20230331655A1, “HYDROXYN[…] AND METHODS OF USE THEREOF” (UNIVERSITY OF MARYLAND, BALTIMORE, priority 2020, published 2023).

System: Male CD-1 mice
Experiment: mouse forced swim test, immobility time 24 h after treatment
Type: in vivo
Conditions: for Holm-Šídák post-hoc comparison, group compared vehicle (p, immobility time) / minimum effective dose to reduce immobility time in the forced swim test / doses at which immobility time in the forced swim test was reduced (effective doses): 24 h after treatment; for minimum effective dose to reduce immobility time in the forced swim test / shape of dose response in the forced swim test / doses at which immobility time in the forced swim test was reduced (effective doses): male mice, i.p.; for shape of dose response in the forced swim test: tested range up to 100 mg/kg; for doses at which immobility time in the forced swim test was reduced (effective doses): relative to vehicle
Method: Animals: Male CD-1 mice (Charles Rivers Laboratories; Raleigh, NC, USA), 8-11 weeks old at the time of testing, were habituated to the University of Maryland (Baltimore, MD, USA) animal facility for at least one week prior to testing. Mice were group housed in cages of 4-5 per cage with a constant 12-hour light cycle (lights on/off at 07:00/19:00). Food and water were available ad libitum. All experiments were performed during the light phase. All studies were approved by the University of Maryland School of Medicine Animal Care and Use Committee and conducted in accordance with the National Institutes of Health Guide for the Care and Use of Laboratory Animals.
Drugs: (2R,6R)-HNK hydrochloride, (2S,6S)-HNK hydrochloride, (2R,6S)-HNK, and (2S,6R)-HNK were synthesized and characterized (molecular structures were confirmed via ^1H and ^13C NMR, the absolute and relative stereochemistry was assigned by x-ray crystallography, and the purity was determined via LC/MS) at the National Center for Advancing Translation Sciences (National Institutes of Health, Rockville, MD, USA). The synthesis and characterization of (2R,6R)-HNK hydrochloride, (2S,6S)-HNK hydrochloride, (2R,6S)-HNK, and (2S,6R)-HNK were performed as previously described in Morris et al., 2017, Org. Lett. 19:4572-4575, which is incorporated by reference herein in its entirety. (5R)-methyl-(2R,6R)-HNK was obtained from Organix Inc. (Woburn, MA, USA). (5R)-methyl-(2R,6R)-HNK can be synthesized according to the method described in Example 1. All compounds were dissolved in 20% (w/v) cyclodextrin (Sigma Aldrich, USA) in saline and administered intraperitoneally (i.p.) in a volume of 7.5 ml/kg.
Forced swim test: Compounds were tested in separate cohorts of male mice (n=10-18/group; only male mice were tested to control for sex-dependent differences in pharmacokinetics and brain levels) and all injections were performed by a experimenter. (2R,6R)-HNK, (2S,6S)-HNK, (2R,6S)-HNK, (2S,6R)-HNK were administered at the doses of 1, 3, 10, 30, and 100 mg/kg. (5R)-methyl-(2R,6R)-HNK was administered at the doses of 0.3, 1, 3, and 10 mg/kg. (2R,6S)-HNK and (2S,6R)-HNK were dosed as a free base whereas (2R,6R)-HNK and (2S,6S)-HNK, and (5R)-methyl-(2R,6R)-HNK were dosed as a hydrochloride salt. Vehicle and (2R,6R)-HNK (30 mg/kg) were included as controls in each cohort. Twenty-four h after treatment, mice were tested in the forced swim test, according to previously described methods. Injections were performed by a experimenter. Briefly, mice were placed into a clear Plexiglass cylinder (20 cm height×15 cm diameter) filled to a depth of 15 cm with water (23±1° C.) and subjected to a 6-min swim session. Swim sessions were recorded using a digital video camera. The time spent immobile (defined as passive floating with no movements other than those necessary to keep the head above water) was scored during the final 4 min of the session. Sessions were scored by a trained experimenter blind to the treatment groups.
Statistical analysis: All experiments and analyses were performed in a blinded and randomized manner. All injections were performed by a experimenter. Statistical analyses were performed using GraphPad Prism software (v8; GraphPad Software, Inc.). All statistical tests were two-tailed, and significance was assigned at p<0.05. Differences in immobility time were analyzed via one-way ANOVA followed by Holm-Šídák post-hoc comparison (with all groups compared to saline control group) when significance was reached. Significant results are indicated with asterisks in the figures (*p<0.05, **p<0.01, ***p<0.001). Data are presented as the mean±standard error of the mean (SEM).

| Compound | Holm-Šídák post-hoc comparison, group compared vehicle (p, immobility time) (1 mg/kg i.p.) | Holm-Šídák post-hoc comparison, group compared vehicle (p, immobility time) (3 mg/kg i.p.) | Holm-Šídák post-hoc comparison, group compared vehicle (p, immobility time) (10 mg/kg i.p.) | Holm-Šídák post-hoc comparison, group compared vehicle (p, immobility time) (100 mg/kg i.p.) | minimum effective dose to reduce immobility time in the forced swim test | shape of dose response in the forced swim test | Holm-Šídák post-hoc comparison, group compared vehicle (p, immobility time) (30 mg/kg i.p.) | fold lower doses than (2R,6R)-HNK for antidepressant-relevant behavioral effects (forced swim test) | doses at which immobility time in the forced swim test was reduced (effective doses) | Holm-Šídák post-hoc comparison, group compared vehicle (p, immobility time) (0.3 mg/kg i.p.) | Holm-Šídák post-hoc comparison, group compared vehicle (p, immobility time) (3 mg/kg i.p., hydrochloride) | Holm-Šídák post-hoc comparison, group compared vehicle (p, immobility time) (3 mg/kg i.p., listed as (5R)-Me-(2R,6R)-HNK, hydrochloride) |
| --- | --- | --- | --- | --- | --- | --- | --- | --- | --- | --- | --- | --- |
| N[C@@]1(c2ccccc2Cl)CCC[C@@H](O)C1=O [(2R,6R)-HNK, (2R,6R)-hydroxynorketamine] | p = 0.2332 | p = 0.2631 | p = 0.0428 | p = 0.0135 | 10 mg/kg | did not demonstrate U-shaped dose responses |  |  |  |  |  |  |
| N[C@@]1(c2ccccc2Cl)CCC[C@H](O)C1=O [(2R,6S)-HNK] | p = 0.0457 | p = 0.0261 | p = 0.0261 | p = 0.4950 | 1 mg/kg | U-shaped dose response curves | p = 0.4950 | 10 fold | 1 mg/kg |  |  |  |
| N[C@]1(c2ccccc2Cl)CCC[C@@H](O)C1=O [(2S,6R)-HNK] | p = 0.8466 | p = 0.0404 | p = 0.0404 | p = 0.8466 | 3 mg/kg | U-shaped dose response curves | p = 0.8466 |  |  |  |  |  |
| N[C@]1(c2ccccc2Cl)CCC[C@H](O)C1=O [(2S,6S)-HNK, (2S,6S)-hydroxynorketamine] | p = 0.9176 | p = 0.8804 | p = 0.9176 | p = 0.0003 | 30 mg/kg | did not demonstrate U-shaped dose responses | p = 0.0013 |  |  |  |  |  |
| C[C@@H]1CC[C@@](N)(c2ccccc2Cl)C(=O)[C@@H]1O.Cl [(5R)-methyl-(2R,6R)-HNK, (2R,5R,6R)-2-amino-2-(2-chlorophenyl)-6-hydroxy-5-methylcyclohexan-1-one hydrochloride] | p = 0.0257 |  | p = 0.0026 |  | 1 mg/kg |  |  |  | 1 to 10 mg/kg | p = 0.8074 | 0.06 | p = 0.0671 |
